Assay results taken from patent publication US20200170247A1, “HAND DISINFECTANTS” (priority 2014, published 2020).

Test system: microbial load on the hands
Assay: hand disinfectant experiment according to EN 1500
Type: in vivo
Details: EN 1500, six samples per product; reference 60% 2-propanol (vol/vol)
From the text: The state of the art for hand disinfectants is described by the test methods, in which an agent is examined in regard to its efficiency. Currently, all agents, which are to be approved for hygienic hand disinfection have to be examined according to standard EN1500. The EN 1500 uses as a microbicidal reference substance 60% 2-propanol (vol/vol) in water. […] In these cases, the effectiveness of alcoholic hand disinfectants with or without the addition of quaternary ammonium compounds is more or less the same. It has also been known that products are possible, which contain as an active agent about 4% of a quaternary ammonium compound or a guanidine and contain, apart from this compound, solubilizers like propylene glycol, butylene glycol and other polyalcohols, so that the products have a degreasing effect on the skin. Unfortunately, all of these products were effective only according to the new standards EN 1499, hand decontamination, which have to meet less stringent requirements than the EN 1500. Agents, which only have to meet the requirements of the EN1499 have to be better than soap in a comparative test. Whereas for passing the EN 1500, in general, a microbial reduction of 4.5 log increments (i.e., a 4.5 log reduction) is required, passing the EN 1499 in general requires 3 log increments (i.e., a 3 log reduction). This is only 3% of the reduction required by the EN 1500. […]

CC(C)O [60% 2-propanol (vol/vol), 2-propanol]
Reduction factor: 4.1-4.6
